{"source": "patent US4371541A", "about": "“Antiinflammatory and/or analgesic 3,4-dihydro-(or 1,4-dihydro)-4-aryl-2-((substituted)thio)-(1)-benzopyrano(3,4-d)imidazol es and their corresponding sulfoxides and sulfones” (E. I. Du Pont de Nemours and Company, priority 1982, dated 1983)", "key": {"[1]": {"system": "phenylquinone-induced writhing (pain)", "experiment": "Phenylquinone Writhing Test", "type": "in vivo, female white mice", "details": "read-out: Phenylquinone Writhing ED50", "protocol": "A test compound suspended in 1% methylcellulose was given orally to fasted (17-21 hours) female white mice, 5-20 animals per double blind test. Aqueous (0.01% phenyl-p-benzoquinone) phenylquinone, 0.20 ml per mouse, was injected intraperitoneally 6 minutes before observations were begun."}, "[2]": {"system": "adjuvant-induced arthritis", "experiment": "Established Adjuvant-Induced Arthritis in Rats", "type": "in vivo, Charles River Lewis male rats", "details": "rat; for ED50: oral gavage, dosed on day of grouping and 6 following days, ED50% decrease from control paw volume (uninjected left hind paw), read-out: Adjuvant Arthritic ED50; for Adjuvant Arthritic, paw volume reduction at the indicated dose: oral"}, "[3]": {"details": "mouse, oral, fasted, effective analgesic dose for 50% of the mice"}}, "note": "Like-named read-outs stand apart in the source and are kept apart here.", "data": [{"smiles": "CC(=O)Oc1ccccc1C(=O)O", "note": "[Aspirin, aspirin, reference compound]", "values": [{"measurement": "ED50", "setting": "[1]; Mus musculus, po", "value": 135, "unit": "mg/kg"}]}, {"smiles": "FC(F)C(F)(F)Sc1nc2c([nH]1)C(c1ccccc1)Oc1ccccc1-2", "note": "(stereo not shown) [Example 1, 3,4-Dihydro(or 1,4-dihydro)-2-[(1,1,2,2-tetrafluoroethyl)thio]-4-phenyl-[1]benzopyrano[3,4-d]imidazole]", "values": [{"measurement": "ED50", "setting": "[2]", "value": 3.4, "unit": "mg/kg"}, {"measurement": "ED50", "setting": "[1]; [3]", "value": 1.3, "unit": "mg/kg"}]}, {"smiles": "O=S(=O)(c1nc2c([nH]1)C(c1ccccc1)Oc1ccccc1-2)C(F)(F)C(F)F", "note": "(stereo not shown) [Example 2, 3,4-Dihydro(or 1,4-dihydro)-2-[(1,1,2,2-tetrafluoroethyl)sulfonyl]-4-phenyl-[1]benzopyrano[3,4-d]imidazole]", "values": [{"measurement": "ED50", "setting": "[2]", "value": 1.3, "unit": "mg/kg"}, {"measurement": "ED50", "setting": "[1]; [3]", "value": 0.19, "unit": "mg/kg"}]}, {"smiles": "Fc1ccc(C2Oc3ccccc3-c3nc(SC(F)(F)C(F)F)[nH]c32)cc1", "note": "(stereo not shown) [Example 3, 3,4-Dihydro(or 1,4-dihydro)-2-[(1,1,2,2-tetrafluoroethyl)thio]-4-(4-fluorophenyl)-[1]benzopyrano[3,4-d]-imidazole]", "values": [{"measurement": "ED50", "setting": "[2]", "value": 4, "unit": "mg/kg"}, {"measurement": "ED50", "setting": "[1]; [3]", "value": 0.79, "unit": "mg/kg"}]}, {"smiles": "FC(F)(F)Sc1nc2c([nH]1)C(c1ccccc1)Oc1ccccc1-2", "note": "(stereo not shown) [Example 4, 3,4-Dihydro(or 1,4-dihydro)-2-[(trifluoromethyl)thio]4phenyl-[1]benzopyrano[3,4-d]imidazole]", "values": [{"measurement": "Adjuvant Arthritic, paw volume reduction at the indicated dose", "setting": "[2]; at 9 (mg/kg)", "value": 31, "unit": "%"}, {"measurement": "ED50", "setting": "[1]; [3]", "value": 0.58, "unit": "mg/kg"}]}, {"smiles": "O=S(=O)(c1nc2c([nH]1)C(c1ccccc1)Oc1ccccc1-2)C(F)(F)F", "note": "(stereo not shown) [Example 5, 3,4-Dihydro(or 1,4-dihydro)-2-[(trifluoromethyl)sulfonyl]-4-phenyl-[1]benzopyrano[3,4-d]imidazole]", "values": [{"measurement": "ED50", "setting": "[2]", "value": 0.8, "unit": "mg/kg"}, {"measurement": "ED50", "setting": "[1]; [3]", "value": 0.16, "unit": "mg/kg"}]}, {"smiles": "CS(=O)(=O)c1nc2c([nH]1)C(c1ccccc1)Oc1ccccc1-2", "note": "(stereo not shown) [Example 6, 3,4-Dihydro(or 1,4-dihydro)-2-(methylsulfonyl)-4-phenyl-[1]benzopyrano[3,4-d]imidazole]", "values": [{"measurement": "Adjuvant Arthritic, paw volume reduction at the indicated dose", "setting": "[2]; at 27 (mg/kg)", "value": 34, "unit": "%"}, {"measurement": "ED50", "setting": "[1]; [3]", "value": 78, "unit": "mg/kg"}]}, {"smiles": "COc1ccc(C2Oc3ccccc3-c3nc(SC(F)(F)C(F)F)[nH]c32)cc1", "note": "(stereo not shown) [Example 7]", "values": [{"measurement": "ED50", "setting": "[1]; [3]", "value": "< 4", "unit": "mg/kg"}]}, {"smiles": "CCSc1nc2c([nH]1)C(c1ccccc1)Oc1ccccc1-2", "note": "(stereo not shown) [Example 8]", "values": [{"measurement": "Adjuvant Arthritic, paw volume reduction at the indicated dose", "setting": "[2]; at 20 (mg/kg)", "value": 18, "unit": "%"}]}, {"smiles": "FC(F)(F)CSc1nc2c([nH]1)C(c1ccccc1)Oc1ccccc1-2", "note": "(stereo not shown) [Example 9]", "values": [{"measurement": "Adjuvant Arthritic, paw volume reduction at the indicated dose", "setting": "[2]; at 20 (mg/kg)", "value": 30, "unit": "%"}]}, {"smiles": "CC(C)Cc1ccc(C(C)C(=O)O)cc1", "note": "(stereo not shown) [Ibuprofen, ibuprofen, reference compound]", "values": [{"measurement": "ED50", "setting": "[1]; [3]", "value": 10, "unit": "mg/kg"}]}, {"smiles": "COc1ccc2c(c1)c(CC(=O)O)c(C)n2C(=O)c1ccc(Cl)cc1", "note": "[Indomethacin, indomethacin, reference compound]", "values": [{"measurement": "ED50", "setting": "[1]; Mus musculus, po", "value": 0.35, "unit": "mg/kg"}]}, {"smiles": "CCCCC1C(=O)N(c2ccccc2)N(c2ccccc2)C1=O", "note": "[Phenylbutazone, phenylbutazone, reference compound]", "values": [{"measurement": "ED50", "setting": "[1]; [3]", "value": 80, "unit": "mg/kg"}]}]}
